Earlier results on one compound are cited in patent US20130323309A1, “Sustained Release Composition of Memantine” (LUPIN LIMITED, priority 2011, published 2013).

The conditions of the data set: aqueous media and polar solvents; memantine or a pharmaceutically acceptable salt.

For the compound `CC12CC3CC(C)(C1)CC(N)(C3)C2` [Memantine, 1-amino-3,5-dimethyladamantane], the Solubility entry was “highly soluble”.
